We go through 22 compounds from patent US10858360B2, “Tricyclic gyrase inhibitors” (priority 2011, dated 2020).

SMILES strings stand for the structures. Converted amounts (≈) assume the structure as drawn. Some results are limits rather than exact numbers.

One test deals with E. coli ATCC 25922. Description: MIC, E. coli ATCC 25922. The conditions noted are these: Alamar Blue read after overnight incubation at 35° C.; for MIC: Escherichia coli, ATCC25922, E. coli; for MIC Ec: E. coli. Type of test: cell-based.
The subject of a further test is S. aureus ATCC 13709. In words: MIC, S. aureus ATCC 13709 (Alamar Blue broth microdilution). Format: cell-based. The note with it: Alamar Blue read after overnight incubation at 35° C.; for MIC: Staphylococcus aureus, ATCC13709, S. aureus; for MIC Sa: S. aureus. Background: Resazurin is reduced to fluorescent resorufin, in cell work by metabolically active cells.

In general, MIC refers to the lowest concentration that inhibits growth of the organism. A lower MIC goes with inhibition by little substance. With `CNc1cc(F)cc2c1[nH]c1nc(Sc3cnc4cccnc4c3)nc(N3CC4C(N)C4C3)c12` (centres unmarked) [1.51], the MIC in the test on E. coli ATCC 25922 and against S. aureus ATCC 13709 was no more than 0.5 µg/mL each time.

For the compound `CNc1cccc2c1[nH]c1nc(Sc3cnc4ccc[n+]([O-])c4c3)nc(N3CC4C(C3)C4NC(=O)[C@H](C)N)c12` (some centres unmarked) [1.52], the minimum inhibitory concentration (MIC) stood at 16 µg/mL (≈ 29.5 µM) against E. coli ATCC 25922 and 1 µg/mL (≈ 1.85 µM) in the test on S. aureus ATCC 13709.

For `CNc1cccc2c1[nH]c1nc(Sc3cnc4cccnc4c3)nc(N3CCC(CO)C3)c12` (centres unmarked) [1.53], the figures for the minimum inhibitory concentration (MIC) in the test with E. coli ATCC 25922 and against S. aureus ATCC 13709 were 8 µg/mL (≈ 17.5 µM) and no more than 0.5 µg/mL, respectively.

As for `CNc1cccc2c1[nH]c1nc(Sc3cnc4cccnc4c3)nc(N3CCN(c4cnccn4)CC3)c12` [1.54], the MIC is greater than 64 µg/mL in the test on E. coli ATCC 25922 and no more than 0.5 µg/mL against S. aureus ATCC 13709.

In the case of `CNc1cccc2c1[nH]c1nc(Sc3cnc4cccnc4c3)nc(N3CC4CNCC4C3)c12` (centres unmarked) [1.55], the figures for the minimal inhibitory concentration (MIC) against E. coli ATCC 25922 and in the test with S. aureus ATCC 13709 were 8 µg/mL (≈ 17.1 µM) and 1 µg/mL (≈ 2.13 µM), respectively.

With `CNc1cccc2c1[nH]c1nc(Sc3cnc4cccnc4c3)nc(N3CCC4(CCNCC4)C3)c12` [1.56], the minimum inhibitory concentration (MIC) in the test on E. coli ATCC 25922 is 32 µg/mL (≈ 64.4 µM); against S. aureus ATCC 13709, 4 µg/mL (≈ 8.05 µM).

As for `CNc1cccc2c1[nH]c1nc(Sc3cnc4ccc[n+]([O-])c4c3)nc(N3CC4CC3CN4)c12` (centres unmarked) [1.57], the minimum inhibitory concentration (MIC) in the test with E. coli ATCC 25922 and against S. aureus ATCC 13709 was greater than 32 µg/mL each time.

`CNc1ccc(C)c2c1[nH]c1nc(Sc3cnc4cccnc4c3)nc(N3CC4C(N)C4C3)c12` (centres unmarked) [1.58]: the MIC was 8 µg/mL (≈ 17.1 µM) with E. coli ATCC 25922 and no more than 0.5 µg/mL against S. aureus ATCC 13709.

As for `CNc1cccc2c1[nH]c1nc(Sc3cnc4cccnc4c3)nc(N3CCC(C)(N)C3)c12` (centres unmarked) [1.59], the MIC against E. coli ATCC 25922 was 4 µg/mL (≈ 8.76 µM); against S. aureus ATCC 13709 it was 1 µg/mL (≈ 2.19 µM).

Take `CNc1cccc2c1[nH]c1nc(Sc3cnc4cccnc4c3)nc(N3C[C@@H](N)C[C@H]3C)c12` [1.60]: the MIC came out at 2 µg/mL (≈ 4.38 µM) with E. coli ATCC 25922 and 0.5 µg/mL (≈ 1.1 µM) against S. aureus ATCC 13709.

In the case of `CNc1cccc2c1[nH]c1nc(Sc3cnc4cccnc4c3)nc(N3C[C@H](N)C[C@H]3C)c12` [1.61], the MIC against E. coli ATCC 25922 turned out to be 64 µg/mL (≈ 140 µM); against S. aureus ATCC 13709 it was 8 µg/mL (≈ 17.5 µM).

For `CNc1cc(F)cc2c1[nH]c1nc(Sc3cnc4cccnc4c3)nc(N3CC(N)C4(CC4)C3)c12` (centres unmarked) [1.62], the minimal inhibitory concentration (MIC) with E. coli ATCC 25922 and against S. aureus ATCC 13709 was no more than 0.5 µg/mL in each case.

As to `CNc1cc(F)cc2c1[nH]c1nc(Sc3cnc4ccc[n+]([O-])c4c3)nc(N3CC(N)C4(CC4)C3)c12` (centres unmarked) [1.63], the MIC in the test on E. coli ATCC 25922 and in the test with S. aureus ATCC 13709 was no more than 0.5 µg/mL each time.

Take `CNc1cc(F)cc2c1[nH]c1nc(Sc3cnc4ccc[n+]([O-])c4c3)nc(N3CCC4(CC4N)C3)c12` (centres unmarked) [1.64]: the MIC with E. coli ATCC 25922 and in the test on S. aureus ATCC 13709 was no more than 0.5 µg/mL throughout.

In the case of `CNc1cc(F)cc2c1[nH]c1nc(Sc3cnc4ccc[n+]([O-])c4c3)nc(N3CCC4(CC4N)C3)c12` (centres unmarked) [1.65], in the test with E. coli ATCC 25922, the “MIC Ec” value is no more than 0.5 µg/mL. Moreover, the “MIC Sa” value in the test with S. aureus ATCC 13709 was no more than 0.5 µg/mL.

As for `CNc1cccc2c1[nH]c1nc(Sc3cnc4ccc[n+]([O-])c4c3)nc(N3CC4C(N)C4C3)c12` (centres unmarked) [1.66], the “MIC Ec” value against E. coli ATCC 25922 was no more than 0.5 µg/mL. Besides, in the test with S. aureus ATCC 13709, the “MIC Sa” value was no more than 0.13 µg/mL.

Regarding `CNc1cccc2c1[nH]c1nc(Sc3cnc4cccnc4c3)nc(N3CCN(C(C)=O)CC3)c12` [1.67], the figures for the minimum inhibitory concentration (MIC) with E. coli ATCC 25922 and against S. aureus ATCC 13709 were greater than 64 µg/mL and no more than 0.5 µg/mL, respectively.

On to `CNc1cccc2c1[nH]c1nc(Sc3cnc4cccnc4c3)nc(N3C[C@H](N)C[C@@H]3CO)c12` [1.68], for which the figures for the MIC against E. coli ATCC 25922 and in the test with S. aureus ATCC 13709 were 32 µg/mL (≈ 67.7 µM) and 16 µg/mL (≈ 33.9 µM), respectively.

With `CNc1cccc2c1[nH]c1nc(Sc3cnc4cccnc4c3)nc(N3CCN(C(=O)C4CCCO4)CC3)c12` (centres unmarked) [1.69], the MIC with E. coli ATCC 25922 was 8 µg/mL (≈ 14.8 µM); against S. aureus ATCC 13709, no more than 0.5 µg/mL.

As to `CNc1cccc2c1[nH]c1nc(Sc3cnc4cccnc4c3)nc(N3CCC(C(O)c4cccs4)CC3)c12` (centres unmarked) [1.70], the MIC was greater than 32 µg/mL in the test with E. coli ATCC 25922 and 1 µg/mL (≈ 1.81 µM) against S. aureus ATCC 13709.

As for `CNc1ccc(C)c2c1[nH]c1nc(Sc3cnc4ccc[n+]([O-])c4c3)nc(N3CC(N)C4(CC4)C3)c12` (centres unmarked) [1.72], the minimal inhibitory concentration (MIC) was 1 µg/mL (≈ 2.01 µM) against E. coli ATCC 25922 and no more than 0.5 µg/mL against S. aureus ATCC 13709.

`CNc1ccc(C)c2c1[nH]c1nc(Sc3cnc4ccc[n+]([O-])c4c3)nc(N3CC4C(N)C4C3)c12` (centres unmarked) [1.73]: the MIC in the test with E. coli ATCC 25922 is 8 µg/mL (≈ 16.5 µM); in the test with S. aureus ATCC 13709, no more than 0.5 µg/mL.
